Measured values published in US12012410B2, “Substituted pyrazolo[1,5-a]pyrazines for spinal muscular atrophy” (REBORNA BIOSCIENCES, INC., priority 2018, dated 2024).

Tested on: FL-SMN mRNA (SMN transcript containing exons 7 and 8)
Experiment: Live-cell assay to measure changes in FL-SMN mRNA levels (qPCR) after exposure to the compounds
Type: cell-based, human
Conditions: fibroblasts derived from patients SMA (GM03813); 24 hours incubation
Procedure: In this example, each test compound was administered to cultured cells, and changes in the expression levels of mRNA transcripts of SMN, i.e., FL-SMN containing exons 7 and 8 and Delta7 with exon 7 skipped, were examined using PCR.
Fibroblasts derived from patients SMA (GM03813) (Coriell Cell Repositories) were cultured with passages using DMEM (High Glucose) (Life Technologies) supplemented with 10% FBS (Life Technologies). Cells were seeded in tissue-culture-treated 96-well plates (Corning) at 1.5 or 0.5×10^4 cells/well in 100 μL of medium. The cells were incubated in 5% CO2 for 6 hours, and the medium was replaced with 100 μL of medium (with DMSO, 0.1% final concentration) containing each of the compounds given in the Examples. After additional incubation for 24 hours under the same conditions, the cells were washed once with D-PBS(—) (Wako) and 25 μL/well of the lysis solution (with gDNA Remove) contained in the SuperPrep (registered trademark) Cell Lysis & RT Kit for qPCR (Toyobo life science) was added according to the manufacturer's instructions so that the cells were lysed and the genomic DNA was degraded. Furthermore, 5 μL of the STOP solution (with RNase Inhibitor) contained in the kit was added to provide RNA-containing solutions. Six microliters of the RNA-containing solutions were each mixed with 14 μL of a reverse transcription solution containing transcriptase together with dNTP, random primers and an oligodT primer. Reverse transcription was performed at 37° C. (15 min), 50° C. (5 min), and 98° C. (5 min), to give total cDNAs. The total cDNAs were diluted 30-fold with Ultra-pure water (Invitrogen) to measure the expression levels of FL-SMN, delta7, and GAPDH. For quantitative PCR (qPCR), a PCR solution was prepared according to the instructions of the manufacturer of the THUNDERBIRD (registered trademark) Probe qPCR Mix (Toyobo life science). Five microliters of the diluted total cDNA solutions and oligo DNA standard solutions, each containing either 001-Standard FL-SMN (SEQ ID NO. 1) or 002-Standard delta7 (SEQ ID NO. 2), were each mixed with 10 μL of each of the PCR solutions containing a qPCR probe, primers, and PCR enzyme. […] The oligoDNA standard solutions were prepared as those containing either of 5×10^8, 5×10^7, 5×10^6, 5×10^5, 5×10^4, 5×10^3, 5×10^2, 5×10, 5, or 0 copies. For the oligo DNA standards, primers, and probes, oligonucleotides synthesized by Integrated DNA Technologies, Inc. (IDT) were used. […] FIGS. 3B and 3D show their detection mechanisms. The final concentrations of the primers and probes added were 0.4 μM and 0.15 μM, respectively. The qPCR was performed using the following conditions on a ViiA7 instrument (Applied Biosystems): first stage: 95° C. (1 min)→second stage: 95° C. (15 sec)→third stage: 60° C. (1 min)→40 repeated cycles of the second and third stages. The GAPDH mRNA was used as the internal control, and the commercially available 20×gene expression PCR assay (Life Technologies, 4326317E, Hs99999905_ml) and Standard GAPDH (SEQ ID NO. 7) (see FIG. 1) was used to determine the number of copies of this gene. The measurement values obtained for the samples to be measured were standardized against the respective value obtained for GAPDH.
Using the above-mentioned assays, the activities of the compounds of the Examples were evaluated. Specifically, the percentages of the FL-SMN and delta7 values obtained using DMSO without the compounds and standardized against GAPDH were set as 100% and those of the FL-SMN and delta7 values obtained at the time of administration of the compounds and standardized against GAPDH were calculated. […]

Row | SMILES | Percentage of increase (FL-SMN mRNA standardized against GAPDH, DMSO control set as 100%)
1 | CCN1CCC(c2nc3ccc(-c4cc(F)c5nc(C)oc5c4)cc3c(=O)[nH]2)CC1 [Example 25, 2-(1-ethylpiperidin-4-yl)-6-(4-fluoro-2-methylu 1,3-benzoxazole-6-yl) kinazoline-4 (3H)-one] | **** (equal to or higher than 180%)
2 | Cc1cn2cc(-c3ccc4c(=O)n(C5CCN(C)CC5)cnc4c3)ccc2n1 [Example 26, 7-(2-methylimidazo[1,2-a]pyridine-6-yl)-3-(1-methylpiperidin-4-yl) kinazoline-4 (3H)-one] | **** (equal to or higher than 180%)
3 | Cc1nc2c(F)cc(-c3ccc4nc(C5CCN(C6CC6)CC5)[nH]c(=O)c4c3)cc2o1 [Example 27, 2-(1-cyclopropylpiperidin-4-yl)-6-(4-fluoro-2-methyl-1,3-benzoxazol-6-yl)quinazolin-4(3H)-one] | **** (equal to or higher than 180%)
4 | Cc1nc2c(F)cc(-c3cc(F)c4nc(C5CCN(C6CC6)CC5)[nH]c(=O)c4c3)cc2o1 [Example 28, 2-(1-cyclopropylpiperidin-4-yl)-8-fluoro-6-(4-fluoro-2-methyl-1,3-benzoxazol-6-yl)quinazolin-4(3H)-one] | **** (equal to or higher than 180%)
5 | Cc1nc2c(F)cc(-c3ccc4c(=O)n(C5CCN(C)CC5)cnc4c3)cc2o1 [Example 29, 7-(4-fluoro-2-methyl-1,3-benzoxazol-6-yl)-3-(1-methylpiperidin-4-yl)quinazolin-4(3H)-one] | **** (equal to or higher than 180%)
6 | Cc1nc2ccc(-c3cc(F)c4nc(C5CCN(C)CC5)[nH]c(=O)c4c3)cc2o1 [Example 30, 8-fluoro-6-(2-methyl-1,3-benzoxazol-6-yl)-2-(1-methylpiperidin-4-yl)quinazolin-4(3H)-one] | **** (equal to or higher than 180%)
7 | Cc1nc2ccc(-c3cc(F)c4nc(C5CCN(C6CC6)CC5)[nH]c(=O)c4c3)cc2o1 [Example 31, 2-(1-cyclopropylpiperidin-4-yl)-8-fluoro-6-(2-methyl-1,3-benzoxazol-6-yl)quinazolin-4(3H)-one] | **** (equal to or higher than 180%)
8 | Cc1cn2cc(-c3ccc4nc(C5CCN(C6CC6)CC5)[nH]c(=O)c4c3)cc2cn1 [Example 32, 2-(1-cyclopropylpiperidin-4-yl)-6-(3-methylpyrrolo[1,2-a]pyrazin-7-yl)quinazolin-4(3H)-one] | **** (equal to or higher than 180%)
9 | Cc1cn2cc(-c3cc(F)c4nc(C5CCN(C6CC6)CC5)[nH]c(=O)c4c3)cc2cn1 [Example 33, 2-(1-cyclopropylpiperidin-4-yl)-8-fluoro-6-(3-methylpyrrolo[1,2-a]pyrazin-7-yl)quinazolin-4(3H)-one acetate] | *** (equal to or higher than 150% but lower than 180%)
10 | Cc1nc2c(F)cc(-c3ccc4c(=O)n(C5CCN(C6CC6)CC5)cnc4c3)cc2o1 [Example 34, 3-(1-cyclopropylpiperidin-4-yl)-7-(4-fluoro-2-methyl-1,3-benzoxazol-6-yl)quinazolin-4(3H)-one] | **** (equal to or higher than 180%)
11 | COc1ccc(-c2cc(F)c3nc(C4CCN(C5CC5)CC4)[nH]c(=O)c3c2)cc1F [Example 35, 2-(1-cyclopropylpiperidin-4-yl)-8-fluoro-6-(3-fluoro-4-methoxyphenyl) quinazolin-4(3H)-one] | **** (equal to or higher than 180%)
12 | Cc1cn2nc(-c3nc4ccc(N5CCN(C6CC6)CC5)cc4c(=O)[nH]3)cc2c(C)n1 [Example 36, 6-(4-cyclopropylpiperazin-1-yl)-2-(4,6-dimethylpyrazolo[1,5-a]pyrazin-2-yl)quinazolin-4(3H)-one] | **** (equal to or higher than 180%)
13 | Cc1cn2cc(-c3ccc4nc(C5(F)CCN(C)CC5)[nH]c(=O)c4c3)ccc2n1 [Example 37, 2-(4-fluoro-1-methylpiperidin-4-yl)-6-(2-methylimidazo[1,2-a]pyridin-6-yl)quinazolin-4(3H)-one] | *** (equal to or higher than 150% but lower than 180%)
14 | Cc1nc2c(F)cc(-c3ccc4nc(C5CCN(C(C)C)CC5)[nH]c(=O)c4c3)cc2o1 [Example 38, 6-(4-Fluoro-2-methyl-1,3-benzoxazol-6-yl)-2-(1-isopropylpiperidin-4-yl)quinazolin-4(3H)-one] | **** (equal to or higher than 180%)
15 | Cc1cn2cc(-c3ccc4c(=O)n(C5CCN(C6CC6)CC5)cnc4c3)cc(F)c2n1 [Example 39, 3-(1-cyclopropylpiperidin-4-yl)-7-(8-fluoro-2-methylimidazo[1,2-a]pyridin-6-yl)quinazolin-4(3H)-one] | *** (equal to or higher than 150% but lower than 180%)
16 | Cc1cn2cc(-c3cc(C)c4nc(C5CCN(C6CC6)CC5)[nH]c(=O)c4c3)cc(F)c2n1 [Example 40, 2-(1-cyclopropylpiperidin-4-yl)-6-(8-fluoro-2-methylimidazo[1,2-a]pyridin-6-yl)-8-methylquinazolin-4(3H)-one] | **** (equal to or higher than 180%)
17 | Cc1nc2ccc(-c3nc4cc(C)c(C5CCN(C)CC5)cc4c(=O)[nH]3)cc2o1 [Example 41, 7-methyl-2-(2-methyl-1,3-benzoxazol-6-yl)-6-(1-methylpiperidin-4-yl)quinazolin-4(3H)-one] | * (equal to or higher than 100% but lower than 120%)
18 | CN1CCN(c2ccc3nc(C4=NOC5(CCN(C)CC5)C4)[nH]c(=O)c3c2)CC1 [Example 42, 2-(8-methyl-1-oxa-2,8-diazaspiro[4.5]dec-2-en-3-yl)-6-(4-methylpiperazin-1-yl)quinazolin-4(3H)-one] | * (equal to or higher than 100% but lower than 120%)
19 | CN1CCC(c2ccc3nc(C4=NOC5(CCN(C)CC5)C4)[nH]c(=O)c3c2)CC1 [Example 43, 2-(8-methyl-1-oxa-2,8-diazaspiro[4.5]dec-2-en-3-yl)-6-(1-methylpiperidin-4-yl)quinazolin-4(3H)-one] | * (equal to or higher than 100% but lower than 120%)
20 | Cc1ccc(-c2nc3ccc(C4CCN(C)CC4)cc3c(=O)[nH]2)c(=O)n1C [Example 44, 2-(1,6-dimethyl-2-oxo-1,2-dihydropyridin-3-yl)-6-(1-methylpiperidin-4-yl)quinazolin-4(3H)-one] | ** (equal to or higher than 120% but lower than 150%)
21 | COc1cccc(-c2nc3ccc(C4CCN(C)CC4)cc3c(=O)[nH]2)n1 [Example 45, 2-(6-methoxypyridin-2-yl)-6-(1-methylpiperidin-4-yl)quinazolin-4(3H)-one] | ** (equal to or higher than 120% but lower than 150%)
22 | CN1CCC(c2ccc3nc(-c4cc5n(n4)CCOC5)[nH]c(=O)c3c2)CC1 [Example 46, 2-(6,7-dihyrdo-4H-pyrazolo[5,1-c][1,4]oxazin-2-yl)-6-(1-methylpiperidin-4-yl)quinazolin-4(3H)-one] | * (equal to or higher than 100% but lower than 120%)
